Source: patent publication US20250188080A1, “IMIDAZOLONYLQUINOLINE COMPOUNDS AND THERAPEUTIC USES THEREOF” (Merck Patent GmbH, priority 2019, published 2025)
“Also recorded” adds a separate entry of the source.

How the values were obtained:
[1] = test system: HBCx-10 patient-derived triple-negative breast cancer xenograft; assay: HBCx-10 patient-derived xenograft, combination with olaparib; assay type: in vivo, immunodeficient female mice; conditions: 100 mg/kg p.o. (3 d on/4 d off)×7 with olaparib 50 mg/kg p.o. qd×49
Protocol: Seventy (70) mice with a subcutaneously growing HBCx-10 tumor (P20.1.4/0) between 62.5 and 196.0 mm^3 were allocated to treatment when their mean and median tumor volume reached 131.16 and 126.00 mm^3 respectively.
Tumors were measured biweekly during the treatment period and once a week during the follow-up period.

[2] = target: T1, Kv11.1 hERG cardiac ion channel (Homo sapiens, UniProt Q12809); assay: Kv11.1 (hERG) ion channel activity (patch clamp assay); assay type: cell-based; conditions: HEK293 transfected with hERG
T1 construct: expressed in transfected cells; host or cells: HEK293 (human embryonic kidney cells), stably transfected
T1 sequence (Q12809 whole entry): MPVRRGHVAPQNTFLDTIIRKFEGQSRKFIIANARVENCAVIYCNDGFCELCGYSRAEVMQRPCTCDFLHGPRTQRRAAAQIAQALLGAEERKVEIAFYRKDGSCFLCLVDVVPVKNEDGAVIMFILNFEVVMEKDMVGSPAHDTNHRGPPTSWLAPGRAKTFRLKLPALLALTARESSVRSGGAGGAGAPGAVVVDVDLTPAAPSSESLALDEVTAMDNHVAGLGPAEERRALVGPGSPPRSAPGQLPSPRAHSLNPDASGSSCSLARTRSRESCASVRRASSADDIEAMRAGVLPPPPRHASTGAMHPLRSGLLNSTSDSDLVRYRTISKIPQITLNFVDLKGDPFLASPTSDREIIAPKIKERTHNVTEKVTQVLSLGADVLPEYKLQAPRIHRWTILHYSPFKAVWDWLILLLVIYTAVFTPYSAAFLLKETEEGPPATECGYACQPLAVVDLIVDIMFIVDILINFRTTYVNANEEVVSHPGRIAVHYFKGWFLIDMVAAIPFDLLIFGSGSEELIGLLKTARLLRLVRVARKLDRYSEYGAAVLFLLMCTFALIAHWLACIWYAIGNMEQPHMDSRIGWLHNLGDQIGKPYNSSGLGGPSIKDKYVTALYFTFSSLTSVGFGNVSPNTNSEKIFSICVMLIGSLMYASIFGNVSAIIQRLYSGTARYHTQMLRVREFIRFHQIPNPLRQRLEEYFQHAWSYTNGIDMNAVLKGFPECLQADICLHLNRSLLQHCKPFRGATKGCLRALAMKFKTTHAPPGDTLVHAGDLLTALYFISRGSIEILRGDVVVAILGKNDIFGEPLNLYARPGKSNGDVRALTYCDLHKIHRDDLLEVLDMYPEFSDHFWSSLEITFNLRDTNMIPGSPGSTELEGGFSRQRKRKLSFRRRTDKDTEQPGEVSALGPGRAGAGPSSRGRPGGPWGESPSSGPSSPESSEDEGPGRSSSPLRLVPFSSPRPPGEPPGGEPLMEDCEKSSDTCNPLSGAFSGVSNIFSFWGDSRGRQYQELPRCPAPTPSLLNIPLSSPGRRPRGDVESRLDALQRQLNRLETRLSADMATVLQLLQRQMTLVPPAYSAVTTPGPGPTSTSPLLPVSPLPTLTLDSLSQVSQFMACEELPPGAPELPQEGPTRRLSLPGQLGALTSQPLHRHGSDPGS
Protocol: Method for the detection and characterisation of test substances which interfere with the Kv11.1 (hERG) channel: Kv11.1 (hERG, human ether a-go-go related gene) is a potassium channel which plays a central role for repolarisation of the cells in the ventricular cardiomyocytes.
The patch-clamp measurement was carried out at room temperature in whole-cell configuration on human embryonic kidney cells (HEK293) which have been transfected in a stable manner with the hERG gene.
The whole-cell configurations were carried out using an automated patch clamp device (Patchliner™, Nanion Technologies, Munich). […]
The cells were clamped to a holding potential of −80 mV. […] DMSO (vehicle control, 0.1% of DMSO) was then applied, and the control current was recorded for 3 min. The test substance was subsequently added twice in the same concentration, and the potassium current was measured for 3.5 min in each case.
If the measurement result of a test substance at an initial concentration of 10 μM was smaller than (−)50% effect (threshold value) (for example (−)60% effect), the test substance was, in order to determine a dose/action relationship, added cumulatively in increasing concentration, where each concentration was measured for 5 min.
The reference substance used was the Kv11.1 (hERG) ion channel blocker quinidine. […] For the calculation, the current was evaluated for the respective final trace. […]

[3] = test system: xenografts of the human squamous cell head and neck model FaDu; assay: FaDu SCCHN tumor model, combination with irradiation; assay type: in vivo, NMRI nu/nu mice; conditions: oral 10 or 25 mg/kg 30 min before each IR fraction; 6×5 days, 2 Gy
Protocol: One of the control groups was treated with vehicle only. The other control group was treated with IR only at 30 fractions IR of 2 Gy in a 5 days on/2 days off schedule and over a period of 6 weeks.

[4] = test system: CYP1A2, CYP2C8, CYP2C9, CYP2C19, CYP2D6, CYP3A4; assay: Cytochrome P-450 enzymes (CYP) inhibition, P450-Glo; assay type: in vitro ADME; conditions: human
Protocol: In the human organism, drug substances are converted to water-soluble compounds by enzyme systems to facilitate their excretion. These enzyme systems include microsomal cytochrome P-450 enzymes, CYPs for short. The assay is designed to identify whether a compound may be a strong inhibitor for defined CYP isoforms. This involves the use of recombinant CYP isoforms and their reductase obtained by overexpression in insect cells infected with baculovirus. The CYP reaction is performed through […] of the CYP isoform being tested along with a luminometric CYP substrate under NADPH-regenerating conditions. The luminometric P450-Glo™ substrates are derivatives of beetle luciferin ((4S)-4,5-dihydro-2-(6-hydroxybenzothiazolyl)-4-thiazolecarboxylic acid or D-luciferin), a substrate of firefly luciferase from beetles. […] This allows enzyme activity to be quantified rapidly through the luminosity. […] The following commercially available screening systems/assays are used: P450-Glo™ CYP1A2 Screening System (Promega Corporation; V9770); P450-Glo™ CYP2C8 Assay (Promega Corporation; V8782); P450-Glo™ CYP2C9 Screening System (Promega Corporation; V9790); P450-Glo™ CYP2C19 Screening System (Promega Corporation; V9880); P450-Glo™ CYP2D6 Screening System (Promega Corporation; […]); P450-Glo™ CYP3A4 Screening System (Luciferin-PPXE) (Promega Corporation; V9910).

Structure (SMILES): COc1cc2ncc3c(c2cc1-c1cn(C)nc1C)n(-c1c(F)cncc1OC)c(=O)n3C (single isomer, unassigned) [Compound 1, 8-(1,3-Dimethyl-1H-pyrazol-4-yl)-1-(Sa)-(3-fluoro-5-methoxy-pyridin-4-yl)-7-methoxy-3-methyl-1,3-dihydro-imidazo[4,5-c]quinolin-2-one]
- Anti-tumor efficacy in combination with olaparib [1]: efficacy of Compound 1 in combination with olaparib was demonstrated
- Ki [2]: > 30 µM
- Anti-tumor efficacy in combination with irradiation [3]: significant dose-dependent anti-tumor responses; also recorded: strongly enhanced the efficacy of IR (irradiation) in a dose-dependent manner; also recorded: strong tumor growth inhibition
- IC50 [4]: ≥ 20 µM
